For assay [1], the system named is Corynebacterium aquaticum AKU611. The assay is described as follows: Biolog System assimilation of carbon sources. The format is cell-based. As to conditions: 96-well plate, BUGM+B medium, 24 hours at 28° C. From the text: Each well contained one of the 96 types of carbon sources in BUGM+B medium (Biolog Universal Growth Media+Blood) (Biolog Inc.).
Assay [2] addresses T1, levodione reductase (Leifsonia aquatica, UniProt Q9LBG2).
T1 construct: The LR is isolated and purified from the cell-free extract of disrupted cells; made in house; host or cells: Corynebacterium aquaticum AKU611 (FERM BP-6448); This is the natural producer and there was no recombinant expression; The enzyme was purified by ammonium sulfate precipitation and DEAE-Sephacel, alkyl Superose and MONO Q chromatography
T1 sequence (Q9LBG2 1-267): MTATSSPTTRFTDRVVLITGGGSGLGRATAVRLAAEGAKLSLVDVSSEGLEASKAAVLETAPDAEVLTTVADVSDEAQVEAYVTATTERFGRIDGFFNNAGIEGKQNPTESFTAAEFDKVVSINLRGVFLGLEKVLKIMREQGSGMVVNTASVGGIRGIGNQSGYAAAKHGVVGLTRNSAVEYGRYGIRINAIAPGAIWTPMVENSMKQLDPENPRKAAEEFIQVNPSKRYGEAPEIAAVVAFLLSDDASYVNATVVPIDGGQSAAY
The format is biochemical, Corynebacterium aquaticum AKU611. As to the method:
A basal reaction mixture having a total volume of 500 μl includes 100 μl of 1 M potassium phosphate buffer (pH 7.0), 20 μl of 8 mM NADH in 0.2 mM KOH, 10-40 μl of the enzyme solution (i.e., levodione reductase), and water up to a total of 500 μl . This reaction mixture was incubated for 1 minute at 37 ° C. Then, 2 μl of 0.5 M levodione solution were added to give a final concentration of 2 mM, and the whole mixture was incubated for 1 minute at 37 ° C. The levodione reductase enzyme activity was monitored with the decrease of the absorbance of NADH at 340 nm.

For assay [3], the target named is T1, levodione reductase. Put plainly: Co-factor requirement / identification of reaction product. The format is biochemical, Corynebacterium aquaticum AKU611. The note with it: for function as co-factor / electron donor: reduction of levodione to actinol. The method, then:
[…] To this reaction mixture, 10 Al of a 0.5 M levodione solution were added five times at 6 minute intervals. The reaction mixture was incubated for a further 5 minutes, and extracted with 1 ml of ethyl acetate. The extract was analyzed by gas chromatography (column: HR-20M (Shinwa, Kyoto, Japan) 0.25 mm Ø×30 m), column temperature: 160° C. (constant), injector temperature: 250° C., carrier gas: He (about 1 ml/min.). As a result, the product was identified as being actinol in comparison with a standard sample of actinol.

Where [4] appears, read: Table 4-1, + 3 mM NaCl, metal 100 mM.
The mark [5] stands for this setting: Table 4-1, + 3 mM NaCl, metal 200 mM.
The mark [6] stands for this setting: Table 4-1, + 3 mM NaCl, metal 400 mM.
[7] abbreviates: Table 4-1, + 3 mM NaCl, metal 800 mM.
The mark [8] stands for this setting: Table 4-1, + 3 mM NaCl, metal 1600 mM.
Setting [9] is: Table 4-1, + 3 mM NaCl, metal 1800 mM.
Where [10] appears, read: Table 4-1, + 3 mM NaCl, metal 2000 mM.
[11] abbreviates: Table 4-1, + 3 mM NaCl, metal 2500 mM.
Where [12] appears, read: Table 4-1, + 3 mM NaCl, metal 3000 mM.

Entries after “also recorded” stand apart in the source; their conditions may differ. Where two headings read alike, the source gives them in different places.

With `OC[C@H]1O[C@@H]2O[C@H]3[C@H](O)[C@@H](O)[C@@H](O[C@H]4[C@H](O)[C@@H](O)[C@@H](O[C@H]5[C@H](O)[C@@H](O)[C@@H](O[C@H]6[C@H](O)[C@@H](O)[C@@H](O[C@H]7[C@H](O)[C@@H](O)[C@@H](O[C@H]1[C@H](O)[C@H]2O)O[C@@H]7CO)O[C@@H]6CO)O[C@@H]5CO)O[C@@H]4CO)O[C@@H]3CO` [A2, α-cyclodextrin], the Assimilation entry in assay [1] was “−”.
Same read-out and setting: the same measure for `OC[C@H]1O[C@H](O[C@H]2O[C@H](CO)[C@@H](O)[C@H](O)[C@H]2O)[C@H](O)[C@@H](O)[C@@H]1O` [E2, D-trehalose]: “−”; for Glycogen [A5]: “−”; for `O=C(CO)[C@@H](O[C@H]1O[C@H](CO)[C@@H](O)[C@H](O)[C@H]1O)[C@H](O)[C@H](O)CO` [E3, Turanose]: “+”.
Turning to `[Cl-].[Rb+]` [RbCl], the “increase of enzyme activity” value on levodione reductase [2] (3 M RbCl) is on record as “about 250 fold”. The “Relative Activity” value on levodione reductase [2] (setting [4]) was 6.4%; at levodione reductase [2] (setting [5]), 7.5%; at levodione reductase [2] (setting [6]), 23.3%; at levodione reductase [2] (setting [7]) it was 32.6%; at levodione reductase [2] (setting [8]), 66.4%; on levodione reductase [2] (setting [9]), 65.1%. The entries for the “Relative Activity” value at levodione reductase [2] (setting [10]), on levodione reductase [2] (setting [11]) and on levodione reductase [2] (setting [12]) were 93.2%, 93.3% and 100%, respectively.
On to `COC1OC(CO)C(O)C(O)C1O` [D2, α-methyl-D-mannoside], for which the Assimilation result in assay [1] was “−”.
Turning to `O=P(O)(O)O[C@H]1O[C@H](CO)[C@@H](O)[C@H](O)[C@H]1O` [H10, Glucose-1-phosphate], the Assimilation result in assay [1] is on record as “−”.
With `O=P(O)(O)OCC(O)CO` (racemic) [H12, DL-α-glycerol phosphate], the Assimilation result in assay [1] is on record as “−”.
On to `OC[C@H]1O[C@H](OC[C@H]2OC(O)[C@H](O)[C@@H](O)[C@@H]2O)[C@H](O)[C@@H](O)[C@H]1O` (stereo partly drawn) [C8, D-melibiose], for which, in assay [1], the Assimilation result is listed as “+”.
For the molecule `COC1OC(CO)C(O)C(O)C1O` [C10, α-methyl-D-galactoside], the Assimilation entry in assay [1] is recorded as “−”.
The same measure, in the same setting: the same measure for `OC[C@H]1O[C@H](OC[C@H]2O[C@H](O[C@]3(CO)O[C@H](CO)[C@@H](O)[C@@H]3O)[C@H](O)[C@@H](O)[C@@H]2O)[C@H](O)[C@@H](O)[C@H]1O` [D5, D-raffinose]: “+”.
In the case of `NC(=O)C1=CN([C@@H]2O[C@H](COP(=O)(O)OP(=O)(O)OC[C@H]3O[C@@H](n4cnc5c(N)ncnc54)[C@H](O)[C@@H]3O)[C@@H](O)[C@H]2O)C=CC1` [NADH], the “function as co-factor / electron donor” value at levodione reductase [3] was “could serve as a co-factor”.
`OC[C@H]1O[C@@H]2O[C@H]3[C@H](O)[C@@H](O)[C@@H](O[C@H]4[C@H](O)[C@@H](O)[C@@H](O[C@H]5[C@H](O)[C@@H](O)[C@@H](O[C@H]6[C@H](O)[C@@H](O)[C@@H](O[C@H]7[C@H](O)[C@@H](O)[C@@H](O[C@H]8[C@H](O)[C@@H](O)[C@@H](O[C@H]1[C@H](O)[C@H]2O)O[C@@H]8CO)O[C@@H]7CO)O[C@@H]6CO)O[C@@H]5CO)O[C@@H]4CO)O[C@@H]3CO` [A3, β-cyclodextrin]: in assay [1], the Assimilation result is “−”.
As for `[Cl-].[Na+]` [NaCl], the “Relative Activity” value is recorded as 0.4% on levodione reductase [2] (Table 4-1, Tris-HCl pH 7.5, metal 3 mM); 4.2% at levodione reductase [2] (Table 4-2, metal 100 mM); 7.7% at levodione reductase [2] (Table 4-2, metal 200 mM); 19.7% at levodione reductase [2] (Table 4-2, metal 400 mM); 35.9% at levodione reductase [2] (Table 4-2, metal 800 mM); 75.3% on levodione reductase [2] (Table 4-2, metal 1600 mM). Further, the “Relative Activity” value on levodione reductase [2] (Table 4-2, metal 1800 mM) came out at 62.8%; on levodione reductase [2] (Table 4-2, metal 2000 mM), 62.8%; on levodione reductase [2] (Table 4-2, metal 2500 mM), 53.9%; at levodione reductase [2] (Table 4-2, metal 3000 mM) it was 34.1%.
For the molecule `NC(=O)C1=CN([C@@H]2O[C@H](COP(=O)(O)OP(=O)(O)OC[C@H]3O[C@@H](n4cnc5c(N)ncnc54)[C@H](OP(=O)(O)O)[C@@H]3O)[C@@H](O)[C@H]2O)C=CC1` [NADPH], the “actinol detected by gas chromatography” value at levodione reductase [3] (NADH replaced with NADPH, 30° C.) is recorded as “only a trace amount of actinol was detected”. For the same molecule, the “function as co-factor / electron donor” value on levodione reductase [3] is “does not work as an electron donor; also recorded: could not”.
Turning to Dextrin [A4], in assay [1], the Assimilation entry is “−”.
In the case of `NCCCCN` [G10, Putrscine], the Assimilation entry in assay [1] is listed as “−”.
Consider `COC1OC(CO)C(O)C(O)C1O` [C9, α-methyl-D-galactoside], for which, in assay [1], the Assimilation result is listed as “−”.
With `O=C1CC[C@@H](C(=O)O)N1` [G8, L-pyloglutamic acid], the Assimilation result in assay [1] is recorded as “−”.
Consider `O[C@H]1[C@H](O)[C@@H](O)[C@H](O)[C@@H](O)[C@H]1O` [B12, m-inositol], for which the Assimilation entry in assay [1] is “−”.
On the same count and under the same terms, the same measure for `OC[C@H]1O[C@H](O[C@H]2[C@H](O)[C@@H](O)[C@@H](O[C@H]3[C@H](O)[C@@H](O)C(O)O[C@@H]3CO)O[C@@H]2CO)[C@H](O)[C@@H](O)[C@@H]1O` (mixture of isomers) [C4, Maltotriitrose]: “+”.
In the case of `[Cl-].[Cs+]` [CsCl], the “increase of enzyme activity” value on levodione reductase [2] (1.8 M CsCl) is “about 250 fold”. In addition, the “Relative Activity” value at levodione reductase [2] (setting [4]) worked out at 5.9%; on levodione reductase [2] (setting [5]), 14.3%; at levodione reductase [2] (setting [6]), 28.3%; on levodione reductase [2] (setting [7]), 48.1%; at levodione reductase [2] (setting [8]) it was 71.4%; on levodione reductase [2] (setting [9]) it was 100%. For the same molecule, the “Relative Activity” value turned out to be 86.8% at levodione reductase [2] (setting [10]), 88.4% at levodione reductase [2] (setting [11]) and 88.0% at levodione reductase [2] (setting [12]).
For `CO[C@H]1O[C@H](CO)[C@@H](O)[C@H](O)[C@H]1O` [C12, α-methyl-D-glucoside], in assay [1], the Assimilation result is listed as “−”.
For the molecule `Cl.N` [NH4Cl], the “Relative Activity” value on levodione reductase [2] (Table 4-2, metal 100 mM) was found to be 6.4%; at levodione reductase [2] (Table 4-2, metal 200 mM), 21.3%; on levodione reductase [2] (Table 4-2, metal 400 mM) it was 39.3%; at levodione reductase [2] (Table 4-2, metal 800 mM), 67.1%; on levodione reductase [2] (Table 4-2, metal 1600 mM), 100%; at levodione reductase [2] (Table 4-2, metal 1800 mM) it was 75.3%.
TWEEN ® 40 [A8]: the Assimilation result in assay [1] is reported as “+”.
Still for that read-out and setting: the same measure for `CO[C@@H]1O[C@H](CO)[C@@H](O)[C@H](O)[C@H]1O` [D1, β-methyl-D-glucoside]: “−”; for `OC[C@@]12OC[C@@H](O1)[C@@H](O)[C@@H](O)[C@@H]2O` [D9, Sedoheputulosan]: “−”.
In the case of `OC[C@H]1O[C@H](OC[C@H]2O[C@H](OC[C@H]3O[C@H](O[C@]4(CO)O[C@H](CO)[C@@H](O)[C@@H]4O)[C@H](O)[C@@H](O)[C@@H]3O)[C@H](O)[C@@H](O)[C@H]2O)[C@H](O)[C@@H](O)[C@H]1O` [D11, Stachyose], in assay [1], the Assimilation entry was “+”.
On the same count and under the same terms, the same measure for `O=C(O)C[C@@H](O)C(=O)O` [F4, D-malic acid]: “−”; for Mannan [A7]: “−”; for `OC[C@H]1O[C@@](CO)(O[C@H]2O[C@H](CO)[C@@H](O)[C@H](O)[C@H]2O)[C@@H](O[C@H]2O[C@H](CO)[C@@H](O)[C@H](O)[C@H]2O)[C@@H]1O` [C7, D-melezitose]: “−”.
Turning to `C[C@H](O)C(=O)O` [F3, L-lactic acid], in assay [1], the Assimilation entry is given as “−”.
In the case of TWEEN ® 80 [A9], the Assimilation entry in assay [1] is on record as “+”.
On the same count and under the same terms, the same measure for `OC[C@H]1O[C@H](OC[C@H]2OC(O)(CO)[C@@H](O)[C@@H]2O)[C@H](O)[C@@H](O)[C@@H]1O` (stereo partly drawn) [D3, Palatinose]: “+”; for `O=C(O)C[C@H](O)C(=O)O` [F5, L-malic acid]: “−”.
In the case of `[Cl-].[K+]` [KCl], the “Relative Activity” value at levodione reductase [2] (Table 4-2, metal 200 mM) stood at 11.5%; on levodione reductase [2] (Table 4-2, metal 400 mM), 22.2%; at levodione reductase [2] (Table 4-2, metal 800 mM), 40.5%; on levodione reductase [2] (Table 4-2, metal 1600 mM), 45.3%; on levodione reductase [2] (Table 4-2, metal 1800 mM), 33.5%; at levodione reductase [2] (Table 4-2, metal 2000 mM) it was 28.4%. The “Relative Activity” value at levodione reductase [2] (Table 4-2, metal 2500 mM) came to 25.9%; at levodione reductase [2] (Table 4-2, metal 3000 mM), 25.2%.
Inulin [A6]: the Assimilation entry in assay [1] is given as “−”.
Regarding `OC[C@@H](O)C(O)[C@H](O)CO` [B2, D-arabitol], the Assimilation entry in assay [1] is “+”.

Source of the values: US6465228B1, “Levodione reductase” (Roche Vitamins, Inc., priority 1999, dated 2002).
